Assay results as given in patent publication US5843889A, “Glycopeptide antibiotic derivatives” (Eli Lilly and Company, priority 1997, dated 1998).
≈ marks a conversion by molar mass, not a printed value.

How the values were obtained:
Assay type in all cases: cell-based
[1] = tested on: Entercoccus faecalis 276; experiment: MIC, standard broth micro-dilution assay
Method: (§1) The formula I compounds have in vitro and in vivo activity against Gram-positive pathogenic bacteria. The MIC's were determined using a standard broth micro-dilution assay.

[2] = tested on: Entercoccus gallinarum 245; experiment: MIC, standard broth micro-dilution assay
Method: as §1

[3] = tested on: Pedicoccus acidilacti; experiment: MIC, agar dilution on brain-heart infusion agar; details: Pedioccccus acidilacti (mean of 10)
[4] = tested on: Pediococcus pentosaceus; experiment: MIC, agar dilution on brain-heart infusion agar; details: Pediococcus pentosaceus (mean of 2)
[5] = tested on: Leuconostoc lactis; experiment: MIC, agar dilution on brain-heart infusion agar; details: Leuconostoc lactis (mean of 2)
[6] = tested on: Entercoccus faecalis 2041; experiment: MIC, standard broth micro-dilution assay
Method: as §1

[7] = tested on: Leuconostoc mesenteroides; experiment: MIC, agar dilution on brain-heart infusion agar; details: Leuconostoc mesenteroides (mean of 4)
[8] = tested on: Lactobacillus confusus; experiment: MIC, agar dilution on brain-heart infusion agar
[9] = tested on: Staphylococcus aureus SA1199; experiment: MIC, standard broth micro-dilution assay
Method: (§2) The MIC's were determined using a standard broth micro-dilution assay.

[10] = tested on: Staphylococcus aureus 491; experiment: MIC, standard broth micro-dilution assay
Method: as §2

SMILES | MIC [1] [µg/mL] | MIC [2] [µg/mL] | MIC [3] [µg/mL] | MIC [4] [µg/mL] | MIC [5] [µg/mL] | MIC [6] [µg/mL] | MIC [7] [µg/mL] | MIC [8] [µg/mL] | MIC [9] [µg/mL] | MIC [10] [µg/mL]
CNC(CC(C)C)C(=O)NC1C(=O)NC(CC(N)=O)C(=O)NC2C(=O)NC3C(=O)NC(C(=O)NC(C(=O)O)c4cc(O)cc(O)c4-c4cc3ccc4O)C(OC3CC(C)(N)C(O)C(C)O3)c3ccc(c(Cl)c3)Oc3cc2cc(c3OC2OC(CO)C(O)C(O)C2OC2CC(C)(NCc3ccc4ccccc4c3)C(O)C(C)O2)Oc2ccc(cc2Cl)C1O (stereo not drawn) [Compound 1, 2-naphthylmethyl] | ≤ 0.06 | 4 (≈ 2.31 µM) | 18 (≈ 10.4 µM) | 23 (≈ 13.3 µM) | 23 (≈ 13.3 µM) | – | – | – | – | –
CNC(CC(C)C)C(=O)NC1C(=O)NC(CC(N)=O)C(=O)NC2C(=O)NC3C(=O)NC(C(=O)NC(C(=O)O)c4cc(O)cc(O)c4-c4cc3ccc4O)C(OC3CC(C)(N)C(O)C(C)O3)c3ccc(c(Cl)c3)Oc3cc2cc(c3OC2OC(CO)C(O)C(O)C2OC2CC(C)(NCc3cccc4c3oc3ccccc34)C(O)C(C)O2)Oc2ccc(cc2Cl)C1O (stereo not drawn) [Compound 39, 4-[1-oxa]fluorenylmethyl] | ≤ 0.06 | ≤ 0.06 | 26 (≈ 14.7 µM) | 32 (≈ 18.1 µM) | 32 (≈ 18.1 µM) | ≤ 0.06 | 32 (≈ 18.1 µM) | 32 (≈ 18.1 µM) | – | –
CNC(CC(C)C)C(=O)NC1C(=O)NC(CC(N)=O)C(=O)NC2C(=O)NC3C(=O)NC(C(=O)NC(C(=O)O)c4cc(O)cc(O)c4-c4cc3ccc4O)C(OC3CC(C)(N)C(O)C(C)O3)c3ccc(c(Cl)c3)Oc3cc2cc(c3OC2OC(CO)C(O)C(O)C2OC2CC(C)(NCc3cc(OCc4ccccc4)ccc3OC)C(O)C(C)O2)Oc2ccc(cc2Cl)C1O (stereo not drawn) [Compound 51, 3-benzyloxy-6-methoxy benzyl] | ≤ 0.06 | 1 (≈ 0.55 µM) | 87 (≈ 47.8 µM) | 91 (≈ 50 µM) | – | ≤ 0.06 | 76 (≈ 41.8 µM) | – | – | –
CNC(CC(C)C)C(=O)NC1C(=O)NC(CC(N)=O)C(=O)NC2C(=O)NC3C(=O)NC(C(=O)NC(C(=O)O)c4cc(O)cc(O)c4-c4cc3ccc4O)C(OC3CC(C)(N)C(O)C(C)O3)c3ccc(c(Cl)c3)Oc3cc2cc(c3OC2OC(CO)C(O)C(O)C2OC2CC(C)(NCc3ccc(OCc4ccccc4)c(OC)c3)C(O)C(C)O2)Oc2ccc(cc2Cl)C1O (stereo not drawn) [Compound 52, 4-benzyloxy-3-methoxybenzyl] | – | 1 (≈ 0.55 µM) | 55 (≈ 30.2 µM) | – | – | 0.5 (≈ 0.275 µM) | 76 (≈ 41.8 µM) | – | – | –
CNC(CC(C)C)C(=O)NC1C(=O)NC(CC(N)=O)C(=O)NC2C(=O)NC3C(=O)NC(C(=O)NC(C(=O)O)c4cc(O)cc(O)c4-c4cc3ccc4O)C(OC3CC(C)(N)C(O)C(C)O3)c3ccc(c(Cl)c3)Oc3cc2cc(c3OC2OC(CO)C(O)C(O)C2OC2CC(C)(NCc3ccc4c(c3)OCCO4)C(O)C(C)O2)Oc2ccc(cc2Cl)C1O (stereo not drawn) [Compound 56] | 0.25 (≈ 0.144 µM) | 16 (≈ 9.19 µM) | – | – | – | 0.25 (≈ 0.144 µM) | – | – | 0.5 (≈ 0.287 µM) | –
CNC(CC(C)C)C(=O)NC1C(=O)NC(CC(N)=O)C(=O)NC2C(=O)NC3C(=O)NC(C(=O)NC(C(=O)O)c4cc(O)cc(O)c4-c4cc3ccc4O)C(OC3CC(C)(N)C(O)C(C)O3)c3ccc(c(Cl)c3)Oc3cc2cc(c3OC2OC(CO)C(O)C(O)C2OC2CC(C)(NCc3ccc(Oc4ccc([N+](=O)[O-])cc4)cc3)C(O)C(C)O2)Oc2ccc(cc2Cl)C1O (stereo not drawn) [Compound 57, 4-[4-nitrophenoxy]benzyl] | 0.5 (≈ 0.275 µM) | 2 (≈ 1.1 µM) | – | – | – | ≤ 0.06 | – | – | 1 (≈ 0.55 µM) | –

Continued, values first:

MIC [1] [µg/mL] | MIC [2] [µg/mL] | MIC [3] [µg/mL] | MIC [4] [µg/mL] | MIC [5] [µg/mL] | MIC [6] [µg/mL] | MIC [7] [µg/mL] | MIC [8] [µg/mL] | MIC [9] [µg/mL] | MIC [10] [µg/mL] | SMILES
0.5 (≈ 0.29 µM) | 0.5 (≈ 0.29 µM) | 55 (≈ 31.9 µM) | – | – | 0.5 (≈ 0.29 µM) | – | – | 1 (≈ 0.579 µM) | – | CNC(CC(C)C)C(=O)NC1C(=O)NC(CC(N)=O)C(=O)NC2C(=O)NC3C(=O)NC(C(=O)NC(C(=O)O)c4cc(O)cc(O)c4-c4cc3ccc4O)C(OC3CC(C)(N)C(O)C(C)O3)c3ccc(c(Cl)c3)Oc3cc2cc(c3OC2OC(CO)C(O)C(O)C2OC2CC(C)(NCc3cccc4c3OCO4)C(O)C(C)O2)Oc2ccc(cc2Cl)C1O (stereo not drawn) [Compound 58, 2,3-methylenedioxybenzyl]
– | 1 (≈ 0.555 µM) | – | – | – | 0.5 (≈ 0.277 µM) | – | – | ≤ 0.06 | – | CNC(CC(C)C)C(=O)NC1C(=O)NC(CC(N)=O)C(=O)NC2C(=O)NC3C(=O)NC(C(=O)NC(C(=O)O)c4cc(O)cc(O)c4-c4cc3ccc4O)C(OC3CC(C)(N)C(O)C(C)O3)c3ccc(c(Cl)c3)Oc3cc2cc(c3OC2OC(CO)C(O)C(O)C2OC2CC(C)(NCCc3ccccc3OCc3ccccc3)C(O)C(C)O2)Oc2ccc(cc2Cl)C1O (stereo not drawn) [Compound 59, 2-benzyloxyphenethyl]
0.5 (≈ 0.281 µM) | 16 (≈ 9.01 µM) | – | – | – | – | – | – | 0.5 (≈ 0.281 µM) | – | CCOc1ccc2ccccc2c1CNC1(C)CC(OC2C(Oc3c4cc5cc3Oc3ccc(cc3Cl)C(OC3CC(C)(N)C(O)C(C)O3)C3NC(=O)C(NC(=O)C5NC(=O)C(CC(N)=O)NC(=O)C(NC(=O)C(CC(C)C)NC)C(O)c5ccc(c(Cl)c5)O4)c4ccc(O)c(c4)-c4c(O)cc(O)cc4C(C(=O)O)NC3=O)OC(CO)C(O)C2O)OC(C)C1O (stereo not drawn) [Compound 60, 2-ethoxy-1-naphthylmethyl]
≤ 0.06 | – | – | – | – | ≤ 0.06 | – | – | – | ≤ 0.06 | C=CCCCCCCCCCNC1(C)CC(OC2C(Oc3c4cc5cc3Oc3ccc(cc3Cl)C(OC3CC(C)(N)C(O)C(C)O3)C3NC(=O)C(NC(=O)C5NC(=O)C(CC(N)=O)NC(=O)C(NC(=O)C(CC(C)C)NC)C(O)c5ccc(c(Cl)c5)O4)c4ccc(O)c(c4)-c4c(O)cc(O)cc4C(C(=O)O)NC3=O)OC(CO)C(O)C2O)OC(C)C1O (stereo not drawn) [Compound 204, 10-undecenyl]
0.5 (≈ 0.276 µM) | 2 (≈ 1.11 µM) | – | – | – | ≤ 0.06 | – | – | – | – | CNC(CC(C)C)C(=O)NC1C(=O)NC(CC(N)=O)C(=O)NC2C(=O)NC3C(=O)NC(C(=O)NC(C(=O)O)c4cc(O)cc(O)c4-c4cc3ccc4O)C(OC3CC(C)(N)C(O)C(C)O3)c3ccc(c(Cl)c3)Oc3cc2cc(c3OC2OC(CO)C(O)C(O)C2OC2CC(C)(NCc3ccc(Oc4ccc(Cl)cc4)cc3)C(O)C(C)O2)Oc2ccc(cc2Cl)C1O (stereo not drawn) [Compound 240, 4-[4-chlorophenoxy]benzyl]
≤ 0.06 | ≤ 0.06 | – | – | – | ≤ 0.06 | – | – | – | – | CNC(CC(C)C)C(=O)NC1C(=O)NC(CC(N)=O)C(=O)NC2C(=O)NC3C(=O)NC(C(=O)NC(C(=O)O)c4cc(O)cc(O)c4-c4cc3ccc4O)C(OC3CC(C)(N)C(O)C(C)O3)c3ccc(c(Cl)c3)Oc3cc2cc(c3OC2OC(CO)C(O)C(O)C2OC2CC(C)(NCC3CCC(Cc4ccccc4)CC3)C(O)C(C)O2)Oc2ccc(cc2Cl)C1O (stereo not drawn) [Compound 241, 4-[benzyl]cyclohexylmethyl]
0.5 (≈ 0.328 µM) | 0.5 (≈ 0.328 µM) | – | – | – | 0.5 (≈ 0.328 µM) | – | – | – | – | CN[C@@H](CC(C)C)C(=O)N[C@H]1C(=O)N[C@H](CC(N)=O)C(=O)N[C@H]2C(=O)N[C@H]3C(=O)N[C@@H](C(=O)NC(C(=O)O)c4cc(O)cc(O)c4-c4cc3ccc4O)[C@@H](O[C@H]3C[C@](C)(N)[C@H](O)[C@@H](C)O3)c3ccc(cc3)Oc3cc2cc(c3O[C@H]2O[C@@H](CO)[C@@H](O)[C@H](O)[C@@H]2O[C@H]2C[C@](C)(N)[C@H](O)[C@@H](C)O2)Oc2ccc(cc2)[C@@H]1O (stereo partly drawn) [Compound A82846C, A82846C, reference compound]
